Assay results: patent publication US20260294928A1, “BTK INHIBITOR FOR TREATING MULTIPLE SCLEROSIS” (BIOGEN MA INC., priority 2023, published 2026)
Where two headings read alike, the source gives them in different places.

Columns and labels:
[1] = Part 3 multiple dose PK, 250 mg BID x 7 days with moderate fat meal; type: in vivo, human; conditions: 250 mg BID 12 h apart x 7 days
Method: (§1) 250 mg BIIB091 was dosed in a new cohort of 10 healthy subjects twice a day (BID) 12 h apart with a moderate fat meal for 7 days. […] Geomean Ctau (CV %) was 407 (48.3%) ng/mL which exceeded the target of >221 ng/mL, with 9/10 subjects achieving the target.

[2] = Part 1 PK study of BIIB091 formulations and regimens in healthy subjects; type: in vivo, human
Method: (§2) In a single center, open-label study, several formulations and treatment regimens were explored to reduce pharmacokinetic (PK) variability and achieve steady state Ctrough>221 ng/mL while limiting the drug exposure (Cmax). The study included 3 parts.
(§3) IR tablet (50 mg) was tested in 19 healthy subjects at different dose levels (150, 250 and 350 mg) and in the fed (moderate fat and high fat) and fasted state and as a divided daily dose (12 h apart). Subject were treated with BIIB091 up to 4 periods. To facilitate comparisons between different regimens, subjects were randomized into 2 groups (Group 1 and Group 2) pre-dose on Day 1 in Periods 1, 3 and 4. Period 2 was utilized as a reference period, where all subjects were dosed with the BIIB091 IR DiC (drug in capsule).

[3] = Part 2 PK of BIIB091 with PPI rabeprazole, fasted or fed; type: in vivo, human; conditions: 200 mg BIIB091 IR tablet with rabeprazole 20 mg
Method: (§4) A new cohort of 12 healthy male and female (non pregnant and non-lactating) subjects were enrolled and dosed. Subjects were randomized into two groups of 6 subjects, to receive the regimen sequence MNO across 3 study periods (Group 1) or regimen sequence MNP across 3 study periods (Group 2). Both groups were dosed in the fed state in Periods 1 and 2, i.e. BIIB091 alone in the fed state in Period 1, and BIIB091 with the CYP3A4 inhibitor itraconazole in the fed state in Period 2. For the PPI assessment in Period 3, subjects were dosed with BIIB091 co-administered with rabeprazole in the fasted or fed state in order to assess PK under each of these conditions.

[4] = Part 1 safety and tolerability in healthy subjects; type: in vivo, human; conditions: all regimens tested, Part 1 (150, 250, 350 mg; fed, fasted, divided dose)
Method: as §2, §3

CYP3A4 = CYP3A4 (Homo sapiens, UniProt P08684); test: Part 2 PK of BIIB091 with CYP3A4 inhibitor itraconazole, fed; type: in vivo; conditions: role: substrate, 200 mg BIIB091 IR tablet
CYP3A4, sequence (P08684 whole entry): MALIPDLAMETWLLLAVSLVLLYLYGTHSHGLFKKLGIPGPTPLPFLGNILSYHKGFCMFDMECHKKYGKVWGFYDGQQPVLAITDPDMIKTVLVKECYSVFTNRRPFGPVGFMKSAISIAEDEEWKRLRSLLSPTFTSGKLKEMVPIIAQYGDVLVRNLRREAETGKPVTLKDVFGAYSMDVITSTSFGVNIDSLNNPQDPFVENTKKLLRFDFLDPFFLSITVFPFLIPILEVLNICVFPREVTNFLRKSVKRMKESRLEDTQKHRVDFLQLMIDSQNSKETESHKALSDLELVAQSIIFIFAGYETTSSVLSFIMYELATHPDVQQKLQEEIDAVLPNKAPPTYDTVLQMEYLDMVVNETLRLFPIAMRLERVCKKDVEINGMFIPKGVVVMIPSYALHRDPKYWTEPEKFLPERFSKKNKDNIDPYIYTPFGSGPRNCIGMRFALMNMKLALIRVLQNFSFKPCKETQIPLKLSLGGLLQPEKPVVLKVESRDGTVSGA
Method: as §4

[5] = test system: CD69 upregulation on total B cells (CD19+); test: CD69 inhibition on ex vivo stimulated total B cells (CD19+), Part 3; type: in vivo, human; conditions: for inhibition at 250 mg: Homo sapiens, B-cell, 250 mg BID
Method: as §1

SMILES: Cn1cc(Nc2nccc(-c3ccc4c(c3)CN(C3COC3)CC[C@H]4NC(=O)c3cn(C(C)(C)C)nn3)n2)cn1 [Compound 1, (R)-1-(tert-butyl)-N-(8-(2-((1-methyl-1H-pyrazol-4-yl)amino)pyrimidin-4-yl)-2-(oxetan-3-yl)-2,3,4,5-tetrahydro-1H-benzo[c]azepin-5-yl)-1H-1,2,3-triazole-4-carboxamide]
- accumulation ratio for AUCtau [1]: 1.75
- accumulation ratio for Cmax [1]: 1.49
- subjects achieving the target Ctau of >221 ng/mL [1]: 9/10
- concentration at 12 h ([1]; human, in vivo, po, read-out: Geomean Ctau (CV %)): 407 ng/mL
- C (Cmax) with HF food ([2]; high fat food): reduced
- T (Tmax) with HF food ([2]; high fat food): delayed
- AUC with MF meal ([2]; moderate fat meal): similar
- C with MF meal ([2]; moderate fat meal): similar
- Tmax with MF meal compared to HF ([2]; moderate fat meal): less of a delay in Tmax compared to high fat
- BIIB091 bioavailability with PPI co-administration, fasted state ([3]; fasted): decreased
- BIIB091 bioavailability with PPI together with food, compared with fasted condition ([3]; moderate-fat fed): increased
- safety and tolerability [4]: generally safe and well tolerated
- CYP3A4 substrate (CYP3A4; fed, with itraconazole 200 mg): moderate CYP3A4 substrate
- BIIB091 exposure with CYP3A4 inhibitor co-administration (CYP3A4; inhibitor itraconazole 200 mg, moderate-fat fed): increased
- CD69 inhibition at 24 h post final dose ([5]; 250 mg BID x 7 days, 24 h post final dose): returned to baseline
- inhibition at 250 mg ([5]; 12 h post-dose, day 1, read-out: CD69 mean inhibition): 86.8%
- inhibition at 250 mg ([5]; 12 h post-dose, day 7, read-out: CD69 mean inhibition): 85.4%
- inhibition at 250 mg ([5]; Day 1 and 7, from 1 h to 8 h post-dose, ex vivo stimulated B cells, read-out: CD69 inhibition range): 96.5 to 99.2%
- inhibition at 250 mg ([5]; Day 1 and 7, from 1 h to 8 h post-dose, ex vivo stimulated B cells, read-out: mean inhibition of CD69 upregulation from Day 1 pre-dose baseline): > 90%
